A value given as a limit tells only on which side of the number the result lay.

Experiment [1] concerns Jcl : SD rats. As to the kind of experiment: inhibition of the pressor response to angiotensin II in rats, oral. The format is in vivo. To be noted: Rattus norvegicus, p.o. The text has this: Inhibitory effect of the compound of the present invention on pressor action of A-II
Jcl : SD rats (9 week old, male) were used. On the day previous to the experiment, these animals were applied with cannulation into the femoral artery and vein under anesthesia with pentobarbital Na. The animals were fasted but allowed to access freely to drinking water until the experiment was started. Just on the day of conducting the experiment, the artery cannula was connected with a blood-pressure transducer, and the average blood pressure was recorded by means of polygraph. Before administration of the drug, the pressor action due to intravenous administration of A-II (100 ng/kg) as the control was measured. The drugs were orally administered, and then, at each point of the measurement, A-II was administered intravenously, and the pressor action was similarly measured. By comparing the pressor action before and after administration of the drug, the percent inhibition by the drug on A-II-induced pressor action was evaluated.

Experiment [2] addresses T1, A-II-receptor (Bos taurus, UniProt P25104).
T1 construct: An A-II-receptor was prepared from the membrane fraction of bovine adrenal cortex
T1 sequence (P25104 1-359): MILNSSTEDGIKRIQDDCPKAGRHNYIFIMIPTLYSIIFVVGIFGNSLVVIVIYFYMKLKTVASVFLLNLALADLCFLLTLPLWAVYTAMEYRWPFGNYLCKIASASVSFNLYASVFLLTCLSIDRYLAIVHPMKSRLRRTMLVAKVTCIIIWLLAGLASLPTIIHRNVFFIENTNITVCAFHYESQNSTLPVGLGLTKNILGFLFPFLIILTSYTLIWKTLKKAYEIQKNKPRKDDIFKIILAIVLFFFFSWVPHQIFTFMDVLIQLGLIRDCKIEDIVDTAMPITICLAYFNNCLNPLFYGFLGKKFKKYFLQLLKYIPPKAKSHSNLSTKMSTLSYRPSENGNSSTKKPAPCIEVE
As to the kind of experiment: displacement of 125I-angiotensin II from bovine adrenal cortex membranes. Type of experiment: binding, membrane fraction. Particulars: for inhibition at 1 µM: read-out: Radioreceptor Assay (%) / 1X10⁻⁶M; for inhibition at 0.1 µM: read-out: Radioreceptor Assay (%) / 1X10⁻⁷M. As to the method: Inhibition of binding of angiotensin-II to angiotensin receptor
An experiment of inhibition on the binding of angiotensin-II (A-II) to A-II-receptor was conducted by modifying the method of Douglas et al. [Endocrinology, 102, 685-696 (1978)]. An A-II-receptor was prepared from the membrane fraction of bovine adrenal cortex.
The compound of the present invention (10⁻⁷M or 10⁻⁶M ) and ¹²⁵I-A-II (1.85 kBq/50 µl) were added to the receptor membrane fraction, and the mixture was incubated at room temperature for one hour. The receptor-bound and free ¹²⁵I-A-II were separated through a filter (Whatman GF/B filter), and the radioactivity of ¹²⁵I-A-II bound to the receptor was measured.

For the compound `CCc1nc2cccnc2n1Cc1ccc(-c2ccccc2-c2nnn[nH]2)cc1` [compound 9, 2-Ethyl-3-[[2'-(1H-tetrazol-5-yl)biphenyl-4-yl]methyl]imidazo[4,5-b]pyridine, 1/2 EtOAc], in experiment [1], the inhibition at 30 mg/kg is over 70%. Also, in experiment [2], the inhibition at 1 µM was found to be 84% and the inhibition at 0.1 µM turned out to be 50%.

Turning to `CCCc1nc2ccc(OC)nc2n1Cc1ccc(-c2ccccc2-c2nnn[nH]2)cc1` [compound 23, 5-Methoxy-2-propyl-3-[[2'-(1H-tetrazol-5-yl)-biphenyl-4-yl]methyl]imidazo[4,5-b]pyridine, 0.3 H2O], in experiment [2], the inhibition at 1 µM stood at 75% and the inhibition at 0.1 µM stood at 32%.

As to `CCCCc1nc2cc(Br)c(C)nc2n1Cc1ccc(-c2ccccc2-c2nnn[nH]2)cc1` [compound 24, 6-Bromo-2-butyl-5-methyl-3-[[2'-(1H-tetrazol-5-yl)biphenyl-4-yl]methyl]imidazo[5,4-b]pyridine], in experiment [2], the inhibition at 1 µM turned out to be 9% and the inhibition at 0.1 µM was 0%.

The compound `CCCCc1nc2cccnc2n1Cc1ccc(-c2ccccc2-c2nnn[nH]2)cc1` [compound 3, 2-Butyl-3-[2'-[(1H-tetrazol-5-yl)biphenyl-4-yl]methyl]imidazo[4,5-b]pyridine] yielded an inhibition at 10 mg/kg in experiment [1] (10 mg/kg) of 50 to 70%. Also, the inhibition at 30 mg/kg in experiment [1] was over 70%. In addition, in experiment [2], the inhibition at 1 µM turned out to be 92% and the inhibition at 0.1 µM was found to be 63%.

With `CCCCc1nc2cnccc2n1Cc1ccc(-c2ccccc2-c2nnn[nH]2)cc1` [compound 13, 2-Butyl-1-[[2'-(1H-tetrazol-5-yl)biphenyl]-methyl]imidazo[4,5-c]pyridine, 0.2 H2O], in experiment [2], the inhibition at 1 µM turned out to be 44% and the inhibition at 0.1 µM stood at 1%.

For the compound `CCCCc1nc2ccncc2n1Cc1ccc(-c2ccccc2-c2nnn[nH]2)cc1` [compound 14, 2-Butyl-3-[[2'-(1H-tetrazol-5-yl)biphenyl]-methyl]imidazo[4,5-c]pyridine, 0.2 H2O], in experiment [2], the inhibition at 1 µM was 56% and the inhibition at 0.1 µM turned out to be 9%.

Turning to `CCCCc1nc2nccnc2n1Cc1ccc(-c2ccccc2-c2nnn[nH]2)cc1` [compound 6, 2-Butyl-1-[[2'-(1H-tetrazol-5-yl)biphenyl-4-yl]methyl]imidazo[4,5-b]pyrazine, 0.4 H2O], in experiment [2], the inhibition at 1 µM was found to be 81% and the inhibition at 0.1 µM amounted to 43%.

As for `CCCCc1nc2ncc(C)cc2n1Cc1ccc(-c2ccccc2-c2nnn[nH]2)cc1` [compound 16, 2-Butyl-6-methyl-1-[[2'-(1H-tetrazol-5-yl)-biphenyl-4-yl]methyl]imidazo[5,4-b]pyridine, 0.4 H2O], in experiment [2], the inhibition at 1 µM amounted to 32% and the inhibition at 0.1 µM stood at 0%.

As for `CCCCc1nc2cc(C)cnc2n1Cc1ccc(-c2ccccc2-c2nnn[nH]2)cc1` [compound 15, 2-Butyl-6-methyl-3-[[2'-(1H-tetrazol-5-yl)-biphenyl-4-yl]methyl]imidazo[5,4-b]pyridine, 0.3 H2O], in experiment [2], the inhibition at 1 µM is 75% and the inhibition at 0.1 µM came to 32%.

Take `CCCCc1nc2ncccc2n1Cc1ccc(-c2ccccc2-c2nnn[nH]2)cc1` [compound 4, 0.4 H2O]: in experiment [2], the inhibition at 1 µM stood at 48% and the inhibition at 0.1 µM amounted to 5%.

These data come from patent EP0434038A1, “Fused imidazole derivatives, their production and use” (Takeda Chemical Industries, Ltd., priority 1989, dated 1991).
